From doi:10.1101/2024.08.25.609621 (bioRxiv, 2024)
Read-outs that look alike come from different tables or passages of the source.

Columns and labels:
[1] = molecular target: SARS-CoV-2 NSP3 macrodomain (Mac1), P43 crystal form (Severe acute respiratory syndrome coronavirus 2, UniProt P0DTD1); assay type: binding; conditions: for binding by crystal soaking: P43 crystal form, repeated attempts, in words
[2] = molecular target: SARS-CoV-2 NSP3 macrodomain (Mac1) (Severe acute respiratory syndrome coronavirus 2, UniProt P0DTD1); experiment: biochemical; assay type: binding; conditions: for IC50: Dose-response, SARS CoV-2 macrodomain HTRF assay, read-out: IC50
[3] = ligand modeling in Mac1 crystal structure
[4] = Single dose, 200 μM, mean of three technical replicates

c1ccc(-n2nnnc2CSc2nnc(NC3CC3)s2)cc1 [AVI-286]
Isomers modeled [1]: achiral | Number of isomers bound [1]: 1

CC1c2ccsc2CCN1C(=O)Cc1csc(-c2ccccc2)n1 (centres unmarked) [AVI-287]
Average % competition [2]: 0%

O=C(O)C(c1ccccc1)n1sc2ccccc2c1=O (centres unmarked) [AVI-288]
Number of isomers bound [1, 3]: 1

O=C1COc2cc(C(=O)N3CC(C(=O)O)c4ccccc43)ccc2N1 (centres unmarked) [AVI-289]
IC50 [2]: > 1000 µM | Average % competition [2, 4]: 21%

COC1CCCN(S(=O)(=O)c2cc(Cl)cnc2N)C1 (centres unmarked) [AVI-290]
binding by crystal soaking [1]: failed to observe binding

CC(C)n1nnnc1SCc1c(C(=O)O)sc2cccc(F)c12 [AVI-291]
Number of isomers bound [1, 3]: 1 | Isomers modeled ([1]; stereoisomer(s) modeled in Mac1 crystal structure): achiral

Cc1nc2cc(NC(=O)C3CC(=O)Nc4ccccc43)ccc2o1 (centres unmarked) [AVI-292]
Average % competition [2]: 0%

Cc1ncc(CN(C)C(=O)c2cccc(N)c2F)s1 [AVI-293]
IC50 [2]: > 1000 µM | Average % competition [2, 4]: 14%

CC1CN(C(=O)c2ccccc2S(C)(=O)=O)c2cccnc2O1 (centres unmarked) [AVI-294]
Average % competition [2]: 13%

Nc1ncc(Cl)cc1S(=O)(=O)N1CCCC(O)C1 (centres unmarked) [AVI-295]
binding by crystal soaking [1]: failed to observe binding

Nc1nnc(SCCn2c(=O)oc3ccccc32)s1 [AVI-296]
Isomers modeled [1]: achiral | Number of isomers bound [1]: 1

CCCC1CCCC1C(=O)N[C@H]1CCc2nc(N)sc2C1 (some centres unmarked) [AVI-298]
Average % competition [2]: <10%

CC(=O)Nc1ccc(S(=O)(=O)CCCN2C(=O)CC(C)(C(C)C)C2=O)cc1 (centres unmarked) [AVI-299]
Average % competition [2]: 19%

O=C(NCCCN1C(=O)NC2(CCCC2)C1=O)c1ccc(O)nc1 [AVI-300]
Average % competition [2]: 8%

Cc1ccc2c(c1)C(=O)N(CCC(=O)Nc1cnc3c(c1)c(C)nn3C)C2=O [AVI-301]
Average % competition [2]: 16%

Cc1nnc2n1CCN(C(=O)CN1C(=O)CCOc3ccccc31)C2 [AVI-302]
Average % competition [2]: 0%

CC(OC(=O)c1ccc2nc(N)sc2c1)C(=O)N1CCCCCC1 (centres unmarked) [AVI-304]
Average % competition [2]: 0%

CNC(=O)c1ccc(NC(=O)C2CC(=O)Nc3ccccc32)cc1 (centres unmarked) [AVI-305]
Average % competition [2]: 0%

Cc1nc(-c2cccc(NC(=O)NCc3cccs3)c2)n[nH]1 [AVI-306]
IC50 [2]: > 1000 µM | Average % competition [2, 4]: 20%

O=C1CC(C(=O)Nc2nc3c(s2)CCCC3)c2ccccc2N1 (centres unmarked) [AVI-307]
Average % competition [2]: 0%

c1ccn2c(Sc3ncnc4ccsc34)nnc2c1 [AVI-308]
Average % competition [2]: 0%

CNS(=O)(=O)c1cc(C(=O)N2CCOc3ccccc32)n(C)c1 [AVI-309]
Average % competition [2]: 0%

Cc1ccc(O)c(C(=O)c2cnn3c(N)nnc3c2)c1 [AVI-310]
Average % competition [2]: 0%

Nc1ccc(F)c(C(=O)NCc2cnc(O)nc2O)c1F [AVI-312]
Average % competition [2]: <10%

O=C(O)C1CN(C(=O)c2cccc3[nH]ccc23)c2ccccc21 (centres unmarked) [AVI-314]
IC50 [2]: > 1000 µM | Average % competition [2, 4]: 32%

CC(=O)Nc1ccc(NC(=O)CSc2nnnn2C2CCCC2)cc1 [AVI-315]
Average % competition [2]: 0%

O=C(Nc1ccsc1C(=O)O)c1ccc2c(c1)OCO2 [AVI-316]
Number of isomers bound ([1]; ligand modeling in Mac1 crystal soak): 1 | Isomers modeled ([1]; stereoisomer(s) of ligand modeled in Mac1 crystal structure): achiral

O=C(c1cc(C2CCCCC2)[nH]n1)N1CCCC(O)(C(F)(F)F)CC1 (centres unmarked) [AVI-318]
Average % competition [2]: 13%

O=C(O)C1CN(C(=O)c2ccc3[nH]nnc3c2)c2ccccc21 (centres unmarked) [AVI-319]
Average % competition [2]: 25%

Cc1ccc(C)c(CN2C(=O)NC(C)(Cc3ccc4c(c3)OCO4)C2=O)c1 (centres unmarked) [AVI-320]
Average % competition [2]: 18%

Cc1noc(NCc2cc3ccccc3nc2O)n1 [AVI-322]
Average % competition [2]: 0%

O=C(O)C1CN(C(=O)c2ccc3c(c2)OCCO3)CCO1 (centres unmarked) [AVI-323]
Average % competition [2]: 7%

Nc1ncnc(N2CCC(C(F)(F)F)C3(CCC3)C2)c1Cl (centres unmarked) [AVI-324]
Average % competition [2]: <10%

CCOc1ccc(-c2nc(CC(=O)N3CCn4cccc4C3C)cs2)cc1 (centres unmarked) [AVI-325]
Average % competition [2]: 0%

O=C(O)C1CCc2nnc(-c3ccc(F)cc3)n2C1 (centres unmarked) [AVI-326]
Average % competition [2]: 15%

Cc1nn(C)c2sc(C(=O)N3CC(C(=O)O)c4ccccc43)cc12 (centres unmarked) [AVI-327]
Average % competition [2]: 0%

Cc1ccc2c(c1)CC[C@@H](C(=O)Nc1nnc3n1CCCC3)O2 [AVI-329]
Number of isomers bound [1]: 1

NC(=O)N1CCC[C@H]1C(=O)Nc1ccc2ncnn2c1 [AVI-330]
Average % competition [2]: 14%

Nc1ncnc2sc3c(c12)CCN(C(=O)[C@H]1CC=CCC1)C3 [AVI-331]
Average % competition [2]: <10%
